Usually IC50 stands for the concentration that inhibits the measured activity by half. A lower IC50 goes with inhibition by little substance.

The assay deals with P2X7 receptor (Homo sapiens (Human), UniProt Q99572). The assay can be described thus: P2X7 FLIPR assay: antagonism of BzATP response in 293 HEK cells stably expressing P2X7 receptor. Conditions: FLIPR fluorescence (Fluo-4), agonist BzATP, 293 HEK cells stably transfected with P2X7 receptor. The class given is cell-based. The procedure: Cells were plated to cell density of approximately 15,000 cells/well in 384-well assay plates (50 μl/well) with 1.5% low serum media (DMEM, 1.5% BCS, 1% L-glut (2 mM), 1% P/S).
Sequence of P2X7 receptor (Q99572 whole entry): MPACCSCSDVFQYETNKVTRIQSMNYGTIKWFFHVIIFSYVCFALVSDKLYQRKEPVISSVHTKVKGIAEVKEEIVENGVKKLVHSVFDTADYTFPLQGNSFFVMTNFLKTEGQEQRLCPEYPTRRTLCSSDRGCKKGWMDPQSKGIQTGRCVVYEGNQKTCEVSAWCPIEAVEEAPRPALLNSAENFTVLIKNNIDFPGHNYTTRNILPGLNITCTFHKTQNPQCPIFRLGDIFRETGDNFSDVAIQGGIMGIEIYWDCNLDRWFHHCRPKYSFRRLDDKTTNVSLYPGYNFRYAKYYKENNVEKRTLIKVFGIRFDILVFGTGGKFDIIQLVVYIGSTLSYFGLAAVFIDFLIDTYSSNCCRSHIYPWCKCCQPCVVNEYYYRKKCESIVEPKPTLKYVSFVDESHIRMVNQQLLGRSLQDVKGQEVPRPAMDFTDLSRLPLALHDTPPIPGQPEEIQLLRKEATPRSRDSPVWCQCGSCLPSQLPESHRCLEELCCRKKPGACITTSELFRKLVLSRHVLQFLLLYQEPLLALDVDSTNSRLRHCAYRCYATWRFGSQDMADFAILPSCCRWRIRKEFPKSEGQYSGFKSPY
Cells were plated to cell density of approximately 15,000 cells/well in 384-well assay plates (50 μl/well) with 1.5% low serum media (DMEM, 1.5% FBS, 1% L-glut (2 mM), 10 mM HEPES, 1% P/S). Cells were plated 24 hours prior to assay. Cells expressing human, rat or mouse P2X7 receptor were assayed in the following manner.
Fluo-4 NW dye mix (Molecular Probes, Inc., Eugene, Oreg., USA) was prepared in buffer (see manufacturer's instructions). Cell plates were removed from the 37° C. incubator, the media discarded and then 30 μL of dye was added to each well. Plates were placed in the 37° C., non-CO2 incubator for 30 minutes and then room temperature for 30 minutes.
Compound mixtures (A) were added to assay plates containing cells and placed at room temperature for 30 minutes, then BzATP (B) was added. Fluorescence was read using the Tetra FLIPR® (Molecular Devices, Inc., Sunnyvale, Calif., USA) and IC50 values were calculated by standard methods to determine antagonist activity.
For the compound `O=C(NCC(c1cnc(C(F)(F)F)nc1)N1CCOCC1)c1cccc(Cl)c1Cl` (stereo not drawn) [2,3-dichloro-N-[2-morpholino-2-[2-(trifluoromethyl)pyrimidin] [2,3-Dichloro-N-[2-morpholino-2-[2-(trifluoromethyl)pyrimidin-5-yl]ethyl]benzamide], the IC50 stood at 8.2 nM. `O=C(NCC(c1cnc(C(F)(F)F)nc1)N1CCC(F)(F)CC1)c1ccc(Cl)cc1Cl` (single isomer, unassigned; (+)) [(+)2,4-dichloro-N-[2-(4,4-difluoro-1-piperidyl)-2-[2-(triflu] [(+)2,4-dichloro-N-(2-(4,4-difluoropiperidin-1-yl)-2-(2-(trifluoromethyl)pyrimidin-5-yl)ethyl)benzamide] came in with an IC50 of 5.6 nM.

`O=C(NCC(c1cnc(C(F)(F)F)nc1)N1CCC(F)(F)CC1)c1cc(F)cc(Cl)c1Cl` (single isomer, unassigned; (-)) [(−)2,3-dichloro-N-[2-(4,4-difluoro-1-piperidyl)-2-[2-(triflu] [(−)2,3-dichloro-5-fluoro-N-(2-(4,4-difluoropiperidin-1-yl)-2-(2-(trifluoromethyl)pyrimidin-5-yl)ethyl)benzamide] showed an IC50 of 2.2 nM. This IC50 lies about 2.5-fold lower than the previous one.

`COc1cccc(C(=O)NCC(c2cnc(C(F)(F)F)nc2)N2CCOCC2)c1Cl` (single isomer, unassigned; (+)) [(+)2-chloro-3-methoxy-N-[2-morpholino-2-[2-(trifluoromethyl)] [(+)2-chloro-3-methoxy-N-(2-morpholino-2-(2-(trifluoromethyl)pyrimidin-5-yl)ethyl)benzamide]: the IC50 was determined as 16 nM. The figure for `Cc1ncc(C(CNC(=O)c2cccc(Cl)c2Cl)N2CCCC(C)C2)cn1` (stereo not drawn) [2,3-dichloro-N-(2-(3-methylpiperidin-1-yl)-2-(2-methylpyrimidin-5-yl)ethyl)benzamide] is 170 nM; for `Cc1ncc(C(CNC(=O)c2cccc(Cl)c2Cl)N2CCC(Cl)CC2)cn1` (stereo not drawn) [2,3-dichloro-N-(2-(4-chloropiperidin-1-yl)-2-(2-methylpyrimidin-5-yl)ethyl)benzamide] it is 5.7 nM; for `O=C(NCC(c1cnc(C(F)(F)F)nc1)N1CCC(F)(F)CC1)c1c(F)cc(Cl)cc1Cl` (single isomer, unassigned; (-)) [(−)2,4-dichloro-N-[2-(4,4-difluoro-1-piperidyl)-2-[2-(triflu] [(−)2,4-dichloro-6-fluoro-N-(2-(4,4-difluoropiperidin-1-yl)-2-(2-(trifluoromethyl)pyrimidin-5-yl)ethyl)benzamide] it is 6.5 nM. The figure for `O=C(NCC(c1cnc(C(F)(F)F)nc1)N1CCC(F)(F)CC1)c1c(Cl)cc(F)cc1Cl` (single isomer, unassigned; (-)) [(−)2,6-dichloro-N-[2-(4,4-difluoro-1-piperidyl)-2-[2-(triflu] [(−)2,6-dichloro-4-fluoro-N-(2-(4,4-difluoropiperidin-1-yl)-2-(2-(trifluoromethyl)pyrimidin-5-yl)ethyl)benzamide] is 15 nM; for `N#Cc1ccc(Cl)c(C(=O)NCC(c2ccc(Cl)cc2)N2CCOCC2)c1` (single isomer, unassigned; (-)) [(−)2-chloro-N-[2-(4-chlorophenyl)-2-morpholino-ethyl]-5-cyan] [(−)2-chloro-N-(2-(4-chlorophenyl)-2-morpholinoethyl)-5-cyanobenzamide] it is 110 nM; for `Cc1ncc(C(CNC(=O)c2c(F)cccc2Cl)N2CCOCC2)cn1` (stereo not drawn) [2-chloro-6-fluoro-N-(2-(2-methylpyrimidin-5-yl)-2-morpholinoethyl)benzamide] it is 590 nM.

Compound `Cc1ncc(C(CNC(=O)c2c(F)cccc2Cl)N2CCCOCC2)cn1` (stereo not drawn) [2-chloro-6-fluoro-N-(2-(2-methylpyrimidin-5-yl)-2-(1,4-oxazepan-4-yl)ethyl)benzamide] yielded an IC50 of 820 nM. For the compound `O=C(NCC(c1cnc(C(F)(F)F)nc1)N1CCOCC1)c1ccccc1Cl` (single isomer, unassigned; (+)) [(+)2-chloro-N-[2-morpholino-2-[2-(trifluoromethyl)pyrimidin-] [(+)2-Chloro-N-[2-morpholino-2-[2-(trifluoromethyl)pyrimidin-5-yl]ethyl]benzamide], the IC50 came to 30 nM. Regarding `O=C(NCC(c1cnc(C(F)(F)F)nc1)N1CCC(F)(F)CC1)c1ccccc1Cl` (stereo not drawn) [2-chloro-N-(2-(4,4-difluoropiperidin-1-yl)-2-(2-(trifluoromethyl)pyrimidin-5-yl)ethyl)benzamide], the IC50 was 2.8 nM. For `O=C(NCC(c1ccc(C(F)F)nc1)N1CCC(F)(F)CC1)c1c(Cl)cccc1Cl` (single isomer, unassigned; (+)) [(+)2,6-dichloro-N-[2-[6-(difluoromethyl)-3-pyridyl]-2-(4,4-d] [(+)2,6-dichloro-N-(2-(2-(difluoromethyl)pyridin-5-yl)-2-(4,4-difluoropiperidin-1-yl)ethyl)benzamide], the IC50 is 8.7 nM. The figure for `COC1CCN(C(CNC(=O)c2cccc(Cl)c2Cl)c2cnc(C)nc2)CC1` (stereo not drawn) [2,3-dichloro-N-(2-(4-methoxypiperidin-1-yl)-2-(2-methylpyrimidin-5-yl)ethyl)benzamide] is 3800 nM; for `O=C(NCC(c1ccc(F)nc1)N1CCC(F)(F)CC1)c1ccccc1Cl` (stereo not drawn) [2-chloro-N-[2-(4,4-difluoro-1-piperidyl)-2-(6-fluoro-3-pyridyl)ethyl]benzamide] it is 4 nM. Compound `Cc1ncc(C(CNC(=O)c2cccc(F)c2Cl)N2CCCC(F)(F)C2)cn1` (single isomer, unassigned; (-)) [(−)2-chloro-N-[2-(3,3-difluoro-1-piperidyl)-2-(2-methylpyrim] [(−)2-chloro-3-fluoro-N-(2-(3,3-difluoropiperidin-1-yl)-2-(2-methylpyrimidin-5-yl)ethyl)benzamide] returned an IC50 of 41 nM. In turn, `COc1ccc(C(CNC(=O)c2cccc(C)c2C)N2CCOCC2)cc1` (stereo not drawn) [N-[2-(4-Methoxy-phenyl)-2-morpholin-4-yl-ethyl]-2,3-dimethyl-benzamide] returned an IC50 of 47 nM. This IC50 and that of the compound before are within 1.5-fold of each other. For `O=C(NCC(c1ccc(C(F)(F)F)nc1)N1CCC(F)(F)CC1)c1cccc(F)c1Cl` (single isomer, unassigned; (-)) [(−)2-chloro-N-[2-(4,4-difluoro-1-piperidyl)-2-[6-(trifluorom] [(−)2-chloro-N-(2-(4,4-difluoropiperidin-1-yl)-2-(2-(trifluoromethyl)pyridin-5-yl)ethyl)-3-fluorobenzamide], the IC50 was 5.7 nM.

Compound `CS(=O)(=O)c1ccc(Cl)c(C(=O)NCC(c2ccc(C(F)(F)F)nc2)N2CCOCC2)c1` (single isomer, unassigned; (-)) [(−)2-chloro-5-methylsulfonyl-N-[2-morpholino-2-[6-(trifluoro] [(−)2-chloro-5-(methylsulfonyl)-N-(2-morpholino-2-(6-(trifluoromethyl)pyridin-3-yl)ethyl)benzamide] yielded an IC50 of 51 nM.

For the compound `Cc1ncc(C(CNC(=O)c2c(Cl)ccc(F)c2Cl)N2CCC(F)(F)CC2)cn1` (single isomer, unassigned; (+)) [(+)2,6-dichloro-N-[2-(4,4-difluoro-1-piperidyl)-2-(2-methylp] [(+)2,6-dichloro-5-fluoro-N-(2-(4,4-difluoropiperidin-1-yl)-2-(2-methylpyrimidin-5-yl)ethyl)benzamide], the IC50 worked out at 25 nM.

Values taken from US9415055B2, “Cyclic amines” (H. Lundbeck A/S, priority 2012, dated 2016).
